# Assay results reported in patent publication US20250034523A1, “METHODS OF GENERATING HUMAN COCHLEAR HAIR CELLS” (THE TRUSTEES OF INDIANA UNIVERSITY, priority 2021, published 2025).
# Key:
# [1] = tested on: PAX2-2A-nGFP/POU4F3-2A-ntdTomato hESC-derived aggregates; experiment: derivation of POU4F3+ hair cells (POU4F3-ntdTomato reporter); assay type: cell-based, human
# Method: To build a PAX2-2A-nGFP/POU4F3-2A-ntdTomato multiplex reporter cell line, the POU4F3-2A-ntdTomato knockin CRISPR was performed on the PAX2-2A-nGFP genetic background. The POU4F3-2A-tdTomato-nls-bGH polyA-frt-PGK-Puro-pA-frt donor plasmid was constructed by connecting the following DNA fragments via Gibson assembly: Two 1 kb homology arms flanking the POU4F3 stop codon amplified from WA25 genomic DNA, 2A-tdTomato gBlock DNA, nls-stop-bGH pA gBlock DNA, frt-PGK-Puro-frt gBlock DNA (IDT), and a linearized pUC19 backbone. The completed donor plasmid was transfected into the PAX2-2A-nGFP parental hES cell line along with a ribonucleoprotein complex composed of a synthetic sgRNA (5′-[…]-3′ (SEQ ID NO: 30)) (Synthego) targeting the POU4F3 stop codon locus, and a high fidelity Cas9 protein (HiFi Cas9 v3, IDT). The transfection was also performed with a 4D Nucleofector (Lonza) using the P3 Primary Cell 4D-Nucleofector X kit and Program CB-150. After nucleofection, cells were plated in E8fn medium containing 1× RevitaCell (Thermo Fisher) and 1 μM of Scr7 (Xcessbio). 0.5 μg/mL puromycin selection was performed for 9 days starting from 48 h post-nucleofection. The frt-flanked PGK-Puro cassette was removed via FLPo transfection (Addgene #13793). Clonal cell line isolation and genotyping procedures were the same as PAX2-2A-nGFP CRISPR. […]
# [2] = tested on: hair cells in hESC-derived inner ear organoids; experiment: PRESTIN immunohistochemistry of hair cells in hESC-derived inner ear organoids; assay type: cell-based, human; settings: for PRESTIN expression / number of Prestin positive HCs: 250 ng/ml thyroxine, about day 50 to about day 100
# Method: PAX2-2A-nGFP/POU4F3-2A-ntdTomat hESCs (passages 22-50) were maintained and passaged in Essential 8 Flex Medium (Thermo Fisher, A2858501) supplemented with 100 μg/ml Normocin (E8fn) on recombinant human Vitronectin-N(Thermo Fisher, A14700)-coated 6-well plates. Human inner ear organoids were derived from hESCs based on the inventors' previous protocol 8.10 with major modifications. Briefly, hESCs were dissociated with StemPro Accutase (Thermo Fisher, A1110501) and distributed at 3500 cells per well onto low-adhesion 96-well U-bottom plates in 100 μL E8fn containing 20 μM Y-27632 (Stemgent, 04-0012-02) and forcibly aggregated at 120 g for 5 minutes. 100 μL of E8fn was added to each well after >4 h of incubation. Induction of non-neural epithelium occurred following 48 h of aggregation, marking differentiation day 0, as follows: aggregates were washed extensively in DMEM:F12 with HEPES buffer (DFH) (Thermo Fisher, 11320033) and transferred to new 96-well U-bottom plates in 100 μL of E6 medium (Thermo Fisher, A1516401) with Normocin (E6n) containing 4 ng mL^−1 FGF-2 (StemCell Technologies, 780003), 10 μM SB-431542 (Stemgent, 04-0010-05), and 2% growth factor reduced (GFR) Matrigel (Corning, 354230). On day 3 of differentiation, 25 μL of E6n containing 50 ng/ml FGF-2 and 200 nM LDN-193189 (Stemgent, 04-0074-02) was added to each well. Culture medium was changed on days 7 and 9 with Eon containing 3 μM CHIR 99021 (Reprocell, 04-0004-10), 200 nM LDN, and 50 ng/mL FGF-2. On day 11, aggregates were washed and transferred to a Nunc Delta surface 6-well culture dish in Organoid Maturation Medium (OMM) containing 1% GFR Matrigel and 3 μM CHIR99021. OMM consists of a 50:50 mixture of Advanced DMEM:F12 (Thermo Fisher, 12634028) and Neurobasal Medium (Thermo Fisher, 21103049) supplemented with 0.5×N2 Supplement (Thermo Fisher, 17502048), 0.5×B27 minus Vitamin A (Thermo Fisher, 12587010), 1× GlutaMAX (Thermo Fisher, 35050061), 0.1 mM β-Mercaptoethanol (Thermo Fisher, 21985023), and Normocin. Control cultures were maintained in OMM+3 μM CHIR99021 until day 18 with media changes on days 13 and 15, then OMM for the remainder of the culture. Treatment cultures were supplemented with 1 μM Purmorphamine (Stemgent, 04-0009) from days 13-22, and IWP-2 (Tocris, 3533) from days 18-22, with media changes on days 15,18, and 20, then maintained in OMM for the remainder of the culture.
# Aggregates were fixed with 4% paraformaldehyde for 30 min at room temperature or at 4° C. overnight. […]
# Treated and control samples were processed for immunostaining simultaneously using identical reagents and protocols for each comparison. […] Raw images were analysed using Nikon GI3 suite or exported in TIFF format and analysed using ImageJ. […]
molecule,measurement,setting,value
Cl.Cl.O=S(=O)(NCCNCC=Cc1ccc(Br)cc1)c1cccc2cnccc12 [H89],efficacy in deriving POU4F3+ hair cells,"[1]; 10 μM H89 alone or combined with PUR / PUR+IWP2, D102",none of these treatments were efficacious
"N[C@@H](Cc1cc(I)c(Oc2cc(I)c(O)c(I)c2)c(I)c1)C(=O)O [T4, thyroxine]",PRESTIN expression / number of Prestin positive HCs,[2]; listed as Thyroxine,increases
same,PRESTIN expression / number of Prestin positive HCs,[2]; listed as thyroxine,increased PRESTIN expression
same,SOX2 expression in HCs,[2]; T4 treated cochlear organoid cultures,downregulated
same,PRESTIN+HCs,"[2]; cochlear organoid cultures, 250 ng/ml T4 from culture day 50 until D100, read at D100",~80%
"BMP-4: recombinant bone morphogenic protein applied on day 0 (protein, UniProt P12644 293-408, looked up) Bone morphogenetic protein 4: SPKHHSQRARKKNKNCRRHSLYVDFSDVGWNDWIVAPPGYQAFYCHGDCPFPLADHLNSTNHAIVQTLVNSVNSSIPKACCVPTELSAISMLYLDEYDKVVLKNYQEMVVEGCGCR",proportion of POU4F3 cells,"[1]; BMP-4 applied on day 0, read at D55",increases
